In patent publication US20160194358A1, “LINEAR PEPTIDE ANTIBIOTCS” (priority 2013, published 2016):
Converted amounts (≈) assume the structure as drawn. Like-named read-outs stand apart in the source and are kept apart here. *1 amine or outer side, *2 acyl side, *3 side chain or, on linkers, in order; H or OH if unused. Where a SMILES comes first, the peptide text is derived from it. [ ]: non-standard residue; d: D form. The star is where a group is joined. ξ: configuration not given here. boroAla((+)-pinanediol) = C[C@H](N*)B1O[C@@H]2C[C@@H]3C[C@@H](C3(C)C)[C@]2(C)O1; Benzoyl(4-(4-Cl-Ph)) = O=C(c1ccc(-c2ccc(Cl)cc2)cc1)*; Ethanesulfonyl(2-NHDecyl) = CCCCCCCCCCNCCS(=O)(=O)*; ξ3Amino2oxobutanoyl = CC(N[*:1])C(=O)C(=O)[*:2]; Propanoyl(3-decylamino) = CCCCCCCCCCNCCC(=O)*; X27 = CCCCCCCCN1CCN([*:1])C(C(=O)[*:2])C1; X21 = O=S(=O)(c1ccc(-c2ccc(Cl)cc2)nc1)*; X30 = CCCCc1ccc(-c2ncc(C(=O)*)cn2)cc1; X1 = C[C@H](N[*:1])C(=O)C(=O)[*:2]; X25 = C[C@H](N*)C(=O)c1ncc(C#N)o1; X26 = CCCCCCCCc1ccc(C(=O)*)c(C)c1; X29 = CCCCCCCCCCN(C)CCS(=O)(=O)*; X20 = CC(N*)C(=O)C(F)(F)C(=O)O; Thr(3ξ) = CC(O)[C@H](N)C(=O)O; X22 = C[C@H](N*)C(=O)C(=O)O; Decanoyl = CCCCCCCCCC(=O)*; boroAla = C[C@H](N*)B(O)O; Octanoyl = CCCCCCCC(=O)*; Dab = NCC[C@H](N)C(=O)O; Dap = NC[C@H](N)C(=O)O; βAla = NCCC(=O)O; X13 = COCCCN*

What was measured:
[1] = tested on: Escherichia coli strain MC4100 IMP-4213, which harbors an LptD mutation; settings: E. coli MC4100 IMP-4213; 35° C., 22 hours
Method: (§1) In vitro antimicrobial activity of each compound was determined by measuring minimal inhibitor concentrations (MICs) using the broth micro-dilution technique as approved by the Clinical and Laboratory Standards Institute (CLSI). Antibacterial activity was measure against two strains of bacteria: 1) methicillin resistant Staphylococcus aureus (MRSA) strain USA300 (NRS384) and 2) Escherichia coli strain MC4100 IMP-4213, which harbors an LptD mutation. Bacterial inocula were prepared by scraping cells into 1 mL of testing media (cation adjusted Mueller Hinton Broth supplemented with 0.002% v/v Tween-80) and diluting to a final OD600nm of 0.01.
(§2) Test compounds were prepared in DMSO at a concentration of 10 mg/ml. These compound stocks were diluted into testing media at a concentration of 64 μg/ml and 9 serial 1:2 dilutions were made in the same media, in 96-well U bottom microtiter dishes. Bacterial inocula were added to the two fold serial dilutions of test compounds to a final density of OD OD600nm of 0.0005 and incubated stationarily at 35° C. for 22 hours, after which the plates were examined visually.

[2] = tested on: methicillin resistant Staphylococcus aureus (MRSA) strain USA300 (NRS384)
Method: as §1, §2

[3] = biological target: T1, E. coli SPase (Escherichia coli, UniProt P00803); test: Biochemical SPase activity assay, fluorogenic peptide substrate, E. coli enzyme; settings: 20 μM substrate, 10 minutes preincubation, read-out: IC 50 (nM) E. coli
T1 construct: Full length His-tagged E. coli SPase proteins; His; made in house; host or cells: E. coli BL21(DE3)
Method: Full length His-tagged E. coli SPase proteins were expressed in E. coli BL21(DE3) containing the plasmid pET23-lepB. Briefly, saturated overnight cultures grown in 20 ml of Luria-Bertani medium supplemented with ampicillin were subcultures into 1.5 L of Luria-Bertani, and shaken at 37° C. until an optical density at 600 nm of 0.4-0.5 was achieved.
(§3) Signal peptidase enzyme activity of the above proteins was measured using two fluorogenic peptide substrates (decanoyl-LSSPAYNO2A ? ADKabzPD and decanoyl-LTPTAYNO2A ? ASKKabzDD), where abz is the fluorescence donor 2-aminobenzamide, YNO2 is the fluorescence acceptor 3-nitrotyrosine, and the cleavage site is indicated with an arrow. Enzyme mix solution was prepared by diluting 2.5 nM of Escherichia coli or Staphylococcus aureus SPase protein into reaction buffers consisting of 20 mM PO4 pH 7.4, 100 mM NaCl, and 1% Elugent™ or octyl phenoxypolyethoxylethanol detergent at a concentration of 0.25% or 0.0625%. Reactions were initiated by the addition of substrate to a final concentration of 20 μM. Reaction progress was monitored by measuring the increase in fluorescence signal (excitation at 314 nm, emission at 416 nm) using a SpectraMax M2 fluorescence microplate reader. To determine IC50 values of test compounds, compound stock solutions were prepared in DMSO at a concentration of 1 mM. Three-folder serial dilutions of test compounds, starting at 10 μM, were prepared in enzyme mix solution and incubated at room temperature for 10 minutes. Following this incubation, fluorogenic substrate was added to a final concentration of 20 μM and the increase in fluorescence, corresponding to substrate cleavage, was monitored continuously at room temperature for 1 hour. Initial reaction rates were calculated based on the rate of increase in fluorescence during the reaction. Reaction rates were plotted as a function of compound concentration, and IC50 values are determined nonlinear regression analysis (SoftMaxPro 5.4, Molecular Devices™) of the sigmoidal dose-response curve.

[4] = biological target: S. aureus SPase (Staphylococcus aureus, UniProt P0A070); test: biochemical; settings: IC 50 (nM) S. aureus, 20 μM substrate, 10 minutes preincubation
Method: Full length His-tagged S. aureus SPase protein was expressed similarly from E. coli BL21(DE3) containing the plasmid pCDF1-SaSpsB and purified similarly to the E. coli protein with the following exceptions. SPase protein was solubilized using 300 mM NaCl, 20 mM Tris pH 8.06, 5 mM Imidazole, 10% glycerol, 1% Triton X-100, prior to purification in Ni-NTA Superflow resin and resin bound protein was washed in a similar buffer containing 1% Elugent in place of Triton X-100 prior to protein eluted in wash buffer supplemented with 300 mM imidazole. […] All protein concentrations were determined by BCA assay.
as §3

[5] = MRSA USA300 (NRS384), 35° C., 22 hours

T1 sequence (P00803 whole entry): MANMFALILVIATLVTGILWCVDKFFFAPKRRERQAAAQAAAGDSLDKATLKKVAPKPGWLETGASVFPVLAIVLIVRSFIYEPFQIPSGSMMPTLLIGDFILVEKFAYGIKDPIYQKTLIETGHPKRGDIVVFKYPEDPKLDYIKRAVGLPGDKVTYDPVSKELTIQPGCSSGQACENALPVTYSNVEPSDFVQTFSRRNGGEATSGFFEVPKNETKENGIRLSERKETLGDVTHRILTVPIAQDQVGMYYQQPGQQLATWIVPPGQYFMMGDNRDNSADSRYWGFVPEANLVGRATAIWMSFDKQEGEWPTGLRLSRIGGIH
Chain of S. aureus SPase (P0A070 whole entry): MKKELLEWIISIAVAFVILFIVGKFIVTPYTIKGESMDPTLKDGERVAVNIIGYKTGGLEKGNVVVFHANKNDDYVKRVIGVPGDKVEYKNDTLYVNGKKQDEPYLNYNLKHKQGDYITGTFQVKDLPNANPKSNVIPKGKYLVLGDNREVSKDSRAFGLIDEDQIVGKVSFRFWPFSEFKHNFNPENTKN

Compound	MIC (μg/mL) E. coli [1]	MIC (μg/mL) S. aureus [2, 5]	IC50 [3]	IC50 [4]	MIC (μg/mL) S. aureus ([2]; USA300, 22 h)
CCCCCCCCCC(=O)NCCC(=O)N[C@@H](CCCCN)C(=O)N[C@H](C(=O)N[C@@H](C)C(=O)N[C@@H](CC(N)=O)C(=O)NC(C)C(=O)C(=O)NC)C(C)O (stereo partly shown) [Compound 106] ({Decanoyl-βAla}-K[Thr(3ξ)]AN[ξ3Amino2oxobutanoyl]-NHMe)	>64 µg/mL	>64 µg/mL	6200 nM	45 nM	
CCCCCCCCCCCCCC(=O)N[C@@H](CCCCN)C(=O)N[C@@H](C)C(=O)N[C@@H](CCCCN)C(=O)N[C@@H](C)B1O[C@@H]2C[C@@H]3C[C@@H](C3(C)C)[C@]2(C)O1 [Compound 123]	4 µg/mL (≈ 5.26 µM)	2 µg/mL (≈ 2.63 µM)	11000 nM	7800 nM	
COCCCNC(=O)C(=O)[C@H](C)NC(=O)[C@H](CCCCN)NC(=O)[C@H](C)NC(=O)[C@@H](NC(=O)[C@H](CN)NC(=O)c1ccc(-c2ccc(Cl)cc2)cc1)[C@@H](C)O [Compound 101] ({Benzoyl(4-(4-Cl-Ph))}-[Dap]TAK[X1]-X13)	>64 µg/mL	>64 µg/mL	870 nM	1600 nM	
C[C@H](NC(=O)[C@H](CCCCN)NC(=O)[C@H](C)NC(=O)[C@@H](NC(=O)[C@H](CCN)NC(=O)c1ccc(-c2ccc(Cl)cc2)cc1)[C@@H](C)O)B(O)O [Compound 119] ({Benzoyl(4-(4-Cl-Ph))}-[Dab]TAK-boroAla)	2 µg/mL (≈ 2.84 µM)	1 µg/mL (≈ 1.42 µM)	10 nM	120 nM	
CCCCc1ccc(-c2ncc(C(=O)N[C@@H](CCN)C(=O)N[C@H](C(=O)N[C@@H](C)C(=O)N[C@@H](CCCCN)C(=O)N[C@@H](C)B3O[C@@H]4C[C@@H]5C[C@@H](C5(C)C)[C@]4(C)O3)[C@@H](C)O)cn2)cc1 [Compound 270] (X30-[Dab]TAK-{boroAla((+)-pinanediol)})	0.25 µg/mL (≈ 0.29 µM)	0.25 µg/mL (≈ 0.29 µM)			
CCCCCCCCc1ccc(C(=O)N[C@@H](CCN)C(=O)N[C@H](C(=O)N[C@@H](C)C(=O)N[C@@H](CCCCN)C(=O)N[C@@H](C)B2O[C@@H]3C[C@@H]4C[C@@H](C4(C)C)[C@]3(C)O2)[C@@H](C)O)c(C)c1 [Compound 273] (X26-[Dab]TAK-{boroAla((+)-pinanediol)})	0.13 µg/mL (≈ 0.152 µM)	0.13 µg/mL (≈ 0.152 µM)			
CCCCCCCCCCNCCC(=O)N[C@@H](CCCCN)C(=O)N[C@H](C(=O)N[C@@H](C)C(=O)N[C@@H](CN)C(=O)N[C@@H](C)C(=O)C(=O)O)[C@@H](C)O [Compound 257] ({Propanoyl(3-decylamino)}-KTA[Dap]-X22)	>64 µg/mL				11 µg/mL (≈ 15.4 µM)
CCCCCCCCCCNCCS(=O)(=O)N[C@@H](CCN)C(=O)N[C@H](C(=O)N[C@@H](C)C(=O)N[C@@H](CCCCN)C(=O)N[C@@H](C)C(=O)C(=O)O)[C@@H](C)O [Compound 253] ({Ethanesulfonyl(2-NHDecyl)}-[Dab]TAK-X22)	64 µg/mL (≈ 83.7 µM)				1 µg/mL (≈ 1.31 µM)
C[C@H](NC(=O)[C@@H](NC(=O)[C@H](CN)NC(=O)c1ccc(-c2ccc(Cl)cc2)cc1)[C@@H](C)O)C(=O)N[C@@H](CCCCN)C(=O)N[C@@H](C)C(=O)c1ncc(C#N)o1 [Compound 266] ({Benzoyl(4-(4-Cl-Ph))}-[Dap]TAK-X25)	16 µg/mL (≈ 20.9 µM)	23 µg/mL (≈ 30 µM)			
CCCCCCCCCCNCCC(=O)N[C@@H](CCCCN)C(=O)N[C@H](C(=O)N[C@@H](C)C(=O)N[C@@H](CCN)C(=O)N[C@@H](C)C(=O)C(=O)O)[C@@H](C)O [Compound 255] ({Propanoyl(3-decylamino)}-KTA[Dab]-X22)	>64 µg/mL				11 µg/mL (≈ 15.1 µM)
CCCCCCCC(=O)N[C@@H](CN)C(=O)N[C@H](C(=O)N[C@@H](C)C(=O)N[C@@H](CCCCN)C(=O)N[C@@H](C)B1O[C@@H]2C[C@@H]3C[C@@H](C3(C)C)[C@]2(C)O1)[C@@H](C)O [Compound 260] (Octanoyl-[Dap]TAK-{boroAla((+)-pinanediol)})	32 µg/mL (≈ 43.5 µM)	23 µg/mL (≈ 31.3 µM)			
CCCCCCCCCCNCCC(=O)N[C@@H](CCCCN)C(=O)N[C@@H](CCC(=O)O)C(=O)N[C@@H](C)C(=O)N[C@@H](CCCCN)C(=O)N[C@@H](C)B1O[C@@H]2C[C@@H]3C[C@@H](C3(C)C)[C@]2(C)O1 [Compound 223] ({Propanoyl(3-decylamino)}-KEAK-{boroAla((+)-pinanediol)})	64 µg/mL (≈ 71.8 µM)	4 µg/mL (≈ 4.49 µM)			
CC(NC(=O)[C@H](CCCCN)NC(=O)[C@H](C)NC(=O)[C@@H](NC(=O)[C@H](CCN)NC(=O)c1ccc(-c2ccc(Cl)cc2)cc1)[C@@H](C)O)C(=O)C(F)(F)C(=O)O (stereo partly shown) [Compound 215] ({Benzoyl(4-(4-Cl-Ph))}-[Dab]TAK-X20)	64 µg/mL (≈ 81.8 µM)				6.7 µg/mL (≈ 8.57 µM)
CCCCCCCCCCN(C)CCS(=O)(=O)N[C@@H](CCCCN)C(=O)N[C@H](C(=O)N[C@@H](C)C(=O)N[C@@H](CCCCN)C(=O)N[C@@H](C)B1O[C@@H]2C[C@@H]3C[C@@H](C3(C)C)[C@]2(C)O1)[C@@H](C)O [Compound 245] (X29-KTAK-{boroAla((+)-pinanediol)})	32 µg/mL (≈ 35 µM)	0.35 µg/mL (≈ 0.383 µM)			
CCCCCCCCN1CCNC(C(=O)N[C@@H](CCCCN)C(=O)N[C@H](C(=O)N[C@@H](C)C(=O)N[C@@H](CCCCN)C(=O)N[C@@H](C)B2O[C@@H]3C[C@@H]4C[C@@H](C4(C)C)[C@]3(C)O2)[C@@H](C)O)C1 (stereo partly drawn) [Compound 279] (H-[X27]KTAK-{boroAla((+)-pinanediol)})	>64 µg/mL	10 µg/mL (≈ 11.4 µM)			
C[C@H](NC(=O)[C@H](CCCCN)NC(=O)[C@H](C)NC(=O)[C@@H](NC(=O)[C@H](CCN)NS(=O)(=O)c1ccc(-c2ccc(Cl)cc2)nc1)[C@@H](C)O)B(O)O [Compound 235] (X21-[Dab]TAK-boroAla)	32 µg/mL (≈ 43.2 µM)	16 µg/mL (≈ 21.6 µM)			
C[C@H](NC(=O)[C@H](CCCCN)NC(=O)[C@H](C)NC(=O)[C@@H](NC(=O)C(NC(=O)c1ccc(-c2ccc(Cl)cc2)cc1)C1CNC1)[C@@H](C)O)B1O[C@@H]2C[C@@H]3C[C@@H](C3(C)C)[C@]2(C)O1 (stereo partly shown) [Compound 282]	16 µg/mL (≈ 18.8 µM)	8 µg/mL (≈ 9.41 µM)			
CCCCCCCCCCNC[C@@H](N)C(=O)N[C@H](C(=O)N[C@@H](C)C(=O)N[C@@H](CCCCN)C(=O)N[C@@H](C)B1O[C@@H]2C[C@@H]3C[C@@H](C3(C)C)[C@]2(C)O1)[C@@H](C)O [Compound 241]	32 µg/mL (≈ 42.7 µM)	1 µg/mL (≈ 1.33 µM)			
CCCCCCCCCCNCCS(=O)(=O)N[C@@H](CCCCN)C(=O)N[C@H](C(=O)N[C@@H](C)C(=O)N[C@@H](CCCCN)C(=O)N[C@@H](C)B(O)O)[C@@H](C)O [Compound 238] ({Ethanesulfonyl(2-NHDecyl)}-KTAK-boroAla)	32 µg/mL (≈ 41.8 µM)				0.18 µg/mL (≈ 0.235 µM)
